Assay results reported in ChEMBL document CHEMBL1201862, “PubChem BioAssay data set” (2004).
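These data come from cells grown in 96-well plates and exposed to compound for 48 hours at five concentrations. GI50 is the concentration that inhibits growth by half.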 Calls of active or inactive are those of the source. Rule as the data show it: active = GI50 up to about 1.1 µM and inactive = higher. Where a SMILES comes first, the peptide text is derived from it. [ ]: non-standard residue; d: D form. The star is where a group is joined. NMeAc5c = CNC1(C(=O)O)CCCC1; Boc = CC(C)(C)OC(=O)*; OBn = c1ccc(CO*)cc1

Key:
Assay in all cases: NCI-60 cell line screen, 48 h
BT-549 = tested on: BT-549
SF-268 = tested on: SF-268
OVCAR-3 = tested on: OVCAR-3
TK-10 = tested on: TK-10
OVCAR-4 = tested on: OVCAR-4
SW-620 = tested on: SW-620
SN12C = tested on: SN12C
786-0 = tested on: 786-0
U-251 = tested on: U-251
OVCAR-5 = tested on: OVCAR-5
HL-60 = tested on: HL-60
RPMI-8226 = tested on: RPMI-8226
HCT-116 = tested on: HCT-116
SR = tested on: SR
MDA-MB-435 = tested on: MDA-MB-435
M14 = tested on: M14
SF-295 = tested on: SF-295
SK-MEL-28 = tested on: SK-MEL-28
SK-MEL-2 = tested on: SK-MEL-2
MDA-MB-231 = tested on: MDA-MB-231

Measured: GI50

CC(C)N(Cc1ccccc1)S(=O)(=O)c1nc(C(C)(C)C)n[nH]1
inactive: BT-549 > 100 µM | SF-268 > 100 µM | OVCAR-3 > 100 µM | TK-10 > 100 µM | OVCAR-4 > 100 µM | SW-620 > 100 µM | SN12C > 100 µM | 786-0 > 100 µM | U-251 > 100 µM | OVCAR-5 > 100 µM | HL-60 46.1 µM | RPMI-8226 > 100 µM | HCT-116 > 100 µM | SR > 100 µM | MDA-MB-435 > 100 µM | M14 > 100 µM | SF-295 > 100 µM | SK-MEL-28 > 100 µM | SK-MEL-2 > 100 µM | MDA-MB-231 > 100 µM

COCCNC1CCC2(SCCS2)c2[nH]c3ccccc3c21 (stereo not given)
inactive: BT-549 20.6 µM | SF-268 > 100 µM | OVCAR-3 27.2 µM | TK-10 22.5 µM | OVCAR-4 97.1 µM | SW-620 68.7 µM | SN12C 28.4 µM | 786-0 31.8 µM | U-251 37.2 µM | OVCAR-5 > 100 µM | HL-60 18.9 µM | RPMI-8226 15 µM | HCT-116 50.1 µM | SR 23.1 µM | MDA-MB-435 22.4 µM | M14 16 µM | SF-295 50.4 µM | SK-MEL-28 26.3 µM | SK-MEL-2 44.8 µM | MDA-MB-231 20.3 µM

CN(C(=O)C(Cc1ccccc1)NC(=O)OC(C)(C)C)C1(C(=O)NC(Cc2ccccc2)C(=O)OCc2ccccc2)CCCC1 (stereo not drawn) (Boc-Phe-[NMeAc5c]-Phe-OBn; configuration not given here)
inactive: BT-549 > 100 µM | SF-268 35.4 µM | OVCAR-3 31.8 µM | TK-10 34.8 µM | OVCAR-4 > 100 µM | SW-620 39.7 µM | SN12C 46.5 µM | 786-0 40.9 µM | U-251 20.9 µM | OVCAR-5 > 100 µM | HL-60 24.9 µM | RPMI-8226 22.5 µM | HCT-116 30.6 µM | SR 22.2 µM | MDA-MB-435 37.3 µM | M14 23.1 µM | SF-295 42.6 µM | SK-MEL-28 58.1 µM | SK-MEL-2 44.3 µM | MDA-MB-231 23.4 µM
